# How the values were obtained:
# [1] = test system: rats bearing colon tumors and xenografts bearing human colon carcinoma, HCT8 and HT-29; assay: Antitumor activity in tumor-bearing rodents; type: in vivo; settings: 5-FU/irinotecan alone
# Description: (§1) Studies were carried out in normal rats, rats bearing colon tumors and xenografts bearing human colon carcinoma, HCT8 and HT-29. Studies were carried out to test the hypothesis that elsiglutide offers selective protection against 5-Fluorouvacil-(5-FU) and irinotecan-induced toxicities and potentially enhances their antitumor activity. Elsiglutide was administered subcutaneously at non-toxic but therapeutically-effective dose of 1.8 mg/kg/day daily for 4 days, 30 min prior to each 5-FU/irinotecan dose. The tested doses of 5-FU were 100 mg/kg (MTD) and 200 mg/kg, and the doses of irinotecan were 100 mg/kg (MTD) and 200 mg/kg, either daily ×3 or weekly ×4.
# [2] = Protection against 5-FU- and irinotecan-induced toxicities; design: species or system mice and rats; settings: in vivo; daily ×3 or weekly ×4
# Description: as §1
# [3] = test system: Fischer rats; assay: Complete blood cell count (CBC) analysis of peripheral blood; type: in vivo, rat
# Description: 8 to 12-week-old female Fischer 344/N rats (body weight 160-200 g) were obtained from Harlan Sprague Dawley Inc. (Indianapolis, Ind.).
# Irinotecan was purchased as a ready-to-use formulation solution at a concentration of 20 mg/ml (100 mg in a 5 ml vial). For a rat of 150-200 g, an administration up to 2 ml solution (dose of 200 mg/kg/d×3) was required.
# (§2) Elsiglutide was administered by subcutaneous (S.C) route at 1.8 mg/kg/day once a day for 4 days. Three doses were administered 30 minutes prior to each daily intravenous (I.V) dose of irinotecan. Only the fourth dose of elsiglutide was administered 24 hours after the last dose of irinotecan. Irinotecan was administered by intravenous (I.V) injection at the maximum tolerated and therapeutic dose, 100, 150, 200 mg/kg/day for 3 days.
# Hematological (CBC) Analysis • Complete blood cell count (CBC) analysis (days 0, 4, and 9) • From peripheral blood 14 markers, WBC (differential: neutrophils, lymphocytes, eosinophils, monocytes, basophils) and RDW-SD, RBC, HGB, HCT, MCV, MCH, MCHC, and Platelets were analyzed.
# The statistical analysis of complete blood cells (CBC) results was carried out. The differences between the mean values in the different treatment groups were analyzed for significance.
# (§3) Treatment groups and time when specific acquisition of tissues was obtained are outlined below. Fischer Rats (Female), weighing 150 to 180 g (8-12 weeks) were utilized. • Control, histology, d 9 and CBC, baseline, day 4 and day 9 • Control vehicle, histology, d 9 and CBC baseline, d 4 and d 9 • Irinotecan 100 mg/kg/d×3, I.V., histology, d 9 and CBC, baseline, d 4 and d 9 • Irinotecan 150 mg/kg/d×3, I.V., histology, d 9 and CBC, baseline, d 4 and d 9, and CBC, baseline, d 4 and d 9 • Irinotecan 200 mg/kg/d×3, I.V., histology 9, and CBC, d 4 and d 9 • Elsiglutide 1.8 mg/kg/d×4, S.C., histology, d 9 and CBC, baseline, d 4 and d 9 • CBC, baseline, d 4 and d 9 • Elsiglutide 1.8 mg/d×4, S.C+Irinotecan 150 mg/kg/d×3, I.V, histology, d 9, and CBD baseline, d 4 and d9 • Elsiglutide 1.8 mg/d×4, S.C.+Irinotecan 200 mg/kg/d×3, I.V, histology, d 9, and CBC d 4 and d 9 Each treatment groups consisted of 10 rats for histology of bone marrow, spleen and peripheral blood analysis, and for survivors. Evaluation of peripheral blood was carried out on day zero (0), four (4) and day nine (9), bone marrow and spleen analysis after (necropsy) was carried out on day nine (9).
# [4] = test system: Fischer rats; assay: Survival / drug induced lethality; type: in vivo, rat; settings: for rats died because of toxicity: days 6 and 7
# Description: as §2
# 10 rats were assessed for survival up to 4 weeks after treatments. During the study, the kinetics of drug induced toxicities in animals (weight loss/gain, stomatitis, lethality were monitored daily during the first 2 weeks then twice a week thereafter up to 4 weeks in the survival phase. At the end of the survival phase the rats were sacrificed.
# as §3
# [5] = test system: bone marrow of rat sternum; assay: Histopathological evaluation of sternum bone marrow; type: in vivo; settings: Group 8, irinotecan 200 mg/kg i.v.; 5 dead animals
# Description: (§4) The spleen and bone marrow of sternum of untreated Fischer rats and rats treated with irinotecan with 100, 150 and 200 mg/kg/d×3 alone and in combination with Elsiglutide (1.8 mg/kg/d×4) were examined histologically.
# (§5) Histologic analysis using sternum bone marrow and spleen were carried out on day 9 (6 days after the administration of the last irinotecan dose on day 3). Bone marrow and spleen specimens were fixed in buffered formalin (10%) for 48 hours. The entire sternum and spleen were removed during autopsy at the end of the experiments on day 9. The samples were put in 10% buffered formalin for 48 hours in order to get appropriate fixation. After that the sternum was decalcified in a Rapid Decalcifier (RDO) from Apex Engineering Products Corporation (Aurora, Ill., USA) for 17 minutes when the sternum could be bent easily with fingers. When decalcification was complete, samples were taken out of solution and put under cold running water for 60 minutes to remove the decalcification solution containing hydrochloric acid as an active ingredient. Then the decalcified bone marrow and spleen specimen were processed, embedded in paraffin, cut (5 u) and stained conventionally with hematoxylin and eosin (HE). The HE stained slides were used for general orientation and evaluation under light microscope using various magnifications. […]
# [6] = test system: spleen of Fischer rats; assay: Histopathological evaluation of spleen; type: in vivo, rat; settings: Group 8, irinotecan 200 mg/kg i.v.; 5 dead animals
# Description: as §4, §5
# [7] = enzymatic degradation by DPP IV in addition to renal clearance; cited from earlier work
# [8] = irinotecan 200 mg/kg/day × 3, 5 dead rats, day 6 and day 7
compound,measurement,setting,value
"O=c1[nH]cc(F)c(=O)[nH]1 [5-FU, 5-fluorouracil]",overall tumor growth inhibition,[1],30%
same,MTD,[2],100 mg/kg
CCc1c2c(nc3ccc(OC(=O)N4CCC(N5CCCCC5)CC4)cc13)-c1cc3c(c(=O)n1C2)COC(=O)[C@]3(O)CC [Irinotecan],Platelet/Group,"[3]; FIG. 1, Day 4",did not change
same,RBC/Group,"[3]; FIG. 1, Day 4",did not change
same,WBC/group,"[3]; FIG. 1, Day 4, after each dose of irinotecan",decreased
same,WBC/group,"[3]; FIG. 1, Day 9, irinotecan alone treated group",did not reach the normal level
same,Platelet/Group count,"[3]; FIG. 1, after 200 mg/kg irinotecan",decreased
same,Eosinophils Mean Value,[3]; [8],0.42
same,Lymphocytes Mean Value,[3]; [8],1.55
same,Monocytes Mean Value,[3]; [8],0.05
same,WBC Mean Value,[3]; [8],2.18 10^3/µL
same,MCV Mean Value,"[3]; irinotecan 200 mg/kg/day × 3, 5 dead rats, day 6 and day 7, in fL (unit assumed)",47.96
same,MCHC Mean Value,"[3]; irinotecan 200 mg/kg/day × 3, 5 dead rats, day 6 and day 7, in g/dL (unit assumed)",36.52
same,rats died,"[4]; Group 5, irinotecan 150 mg/kg i.v., day 8, 5 rats per group",One
same,animals died with severe diarrhea,"[4]; Group 8, irinotecan 200 mg/kg i.v., day 7",One
same,rats in moribund condition with acute diarrhea,"[4]; Group 8, irinotecan 200 mg/kg i.v., sacrificed before day 9",4
same,rats died because of toxicity,[4]; irinotecan 150 mg/kg/d×3,10%
same,rats died because of toxicity,[4]; irinotecan 200 mg/kg/d×3,Fifty
same,animals which survived treatment,[4]; irinotecan 200 mg/kg/d×3 alone or in combination with elsiglutide,50%
same,decrease (myelosuppression) in hematopoiesis of sternum bone marrow,[5],95-98%
same,extramedullary hematopoiesis in spleen,[6],did not show any sign of extramedullary hematopoiesis
same,overall tumor growth inhibition,[1],30%
same,MTD,[2],100 mg/kg
Glucagon-like-peptide-2 [GLP-2(1-33)],half-life,[7],about 7 minutes

# From patent US20180177849A1, “Therapeutic Uses of Elsiglutide” (HELSINN HEALTHCARE SA, priority 2015, published 2018)
